Test results: PMC10486429, “Investigations Using Albumin Binders to Modify the Tissue Distribution Profile of Radiopharmaceuticals Exemplified with Folate Radioconjugates” (Cancers, 2023)
Read-outs that look alike come from different tables or passages of the source. Blank lines part the entries; values can stand above or below the compound they belong to.

Legend:
[1] = n-octanol/PBS distribution coefficient (shake-flask) of 177Lu-RedFols; format: physicochemical; conditions: n-octanol/PBS pH 7.4
Method: The radiolytic stability of ^177Lu-RedFols (50 MBq/nmol) in PBS pH 7.4 was investigated at an activity concentration of 100 MBq in 500 µL over 24 h at room temperature. The n-octanol/PBS distribution coefficients (logD values) of the folate radioconjugates (50 MBq/nmol) were determined using the same shake-flask method as used for the ^177Lu-DOTA-ALBs, including statistical analysis (Supplementary Material, Section S4). […]
S4. n-Octanol/PBS Distribution Coefficient of 177Lu-DOTA-ALBs
Purpose: The n-octanol/PBS distribution coefficients (logD values) were determined for all 177Lu-DOTA-ALBs in order to assess their hydrophilic/hydrophobic properties.
Methods: The n-octanol/PBS distribution coefficients (logD values) of the 177Lu-DOTA-ALBs were determined as previously described. […] 4 . […]
The vials were vortexed vigorously for 1 min followed by centrifugation for 6 min at 560 rcf for phase separation. An aliquot was taken from each phase and measured in a γ-counter (Perkin Elmer, Wallac Wizard 1480, Waltham, MA, USA). The distribution coeffi-cients were calculated as the logarithm of the ratio of counts per minute (cpm) measured in the n-octanol phase relative to the cpm measured in the PBS phase. The results were listed as the average ± standard deviation (SD) of the data obtained from 2–3 independent experiments, each performed with five replicates. […]

folate receptor (FR) [2] = target: T1, folate receptor (FR) (Homo sapiens, UniProt P15328); experiment: FR-binding affinity (KD) of 177Lu-RedFols on IGROV-1 cells; conditions: 1 h at 4 °C, read-out: KD Value (95% CI)
T1 construct: endogenous in cells; host or cells: IGROV-1 (human ovarian carcinoma cell line), intact cells on ice
Method: (100 µM) to block FRs on the cell surface. The IGROV-1 tumor cells were incubated for 1 h at 4 °C on a shaker, followed by removal of the supernatants and rinsing of the cells twice with PBS. After lysis of the cells with NaOH solution (1 M, 500 µL), the samples were counted for activity using a γ-counter (Wallac Wizard 1480, Perkin Elmer, Waltham, MA, USA). The cpm of the specific binding (determined by subtracting the cpm of the non-specific binding from the cpm of total binding), were plotted against the molar con-centration of the added folate radioconjugates. Non-linear regression analysis was per-formed using GraphPad Prism software (version 8) to obtain KD values from one curve of 3−5 independent experiments, each performed in triplicates.
Results: The results are reported in the main article. […]

[3] = n-octanol/PBS pH 7.4; cited from earlier work
[4] = set-up: method as in PMID 33063250; conditions: n-octanol/PBS pH 7.4; cited from earlier work
folate receptor (FR) [5] = target: T1, folate receptor (FR); set-up: method as in PMID 34251183; conditions: IGROV-1 cells; read-out: KD Value (95% CI); cited from earlier work
[6] = tested on: KB tumor-bearing athymic nude mice; set-up: method as in earlier work; conditions: cited from earlier work

T1 sequence (P15328 25-257): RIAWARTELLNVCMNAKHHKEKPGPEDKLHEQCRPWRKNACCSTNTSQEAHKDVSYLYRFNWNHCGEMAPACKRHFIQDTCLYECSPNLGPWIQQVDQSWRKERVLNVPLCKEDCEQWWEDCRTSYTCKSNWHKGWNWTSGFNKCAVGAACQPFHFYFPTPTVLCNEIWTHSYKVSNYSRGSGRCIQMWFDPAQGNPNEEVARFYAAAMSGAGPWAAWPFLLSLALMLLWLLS

- logD Values [1]: −3.2 ± 0.1
- Kd (folate receptor (FR) [2]): 4.7 nM
SMILES: CN1c2c(nc(N)[nH]c2=O)NC[C@H]1CNc1ccc(C(=O)N[C@@H](CCC(=O)N[C@@H](CCCCNC(=O)CN2CCN(CC(=O)O)CCN(CC(=O)O)CCN(CC(=O)O)CC2)C(=O)N[C@@H](CCCCNC(=O)c2ccc(CNC(=O)CCCc3ccc(I)cc3)cc2)C(=O)O)C(=O)O)cc1 [[^177Lu]Lu-6R-RedFol-3, metal not drawn]

SMILES: CN1c2c(nc(N)[nH]c2=O)NC[C@H]1CNc1ccc(C(=O)N[C@@H](CCC(=O)N[C@@H](CCCCNC(=O)CN2CCN(CC(=O)O)CCN(CC(=O)O)CCN(CC(=O)O)CC2)C(=O)N[C@@H](CCCCNC(=O)c2ccc(CNC(=O)CCCCc3ccc(I)cc3)cc2)C(=O)O)C(=O)O)cc1 [[^177Lu]Lu-6R-RedFol-25, metal not drawn]
- logD Values [1]: −3.0 ± 0.1
- Kd (folate receptor (FR) [2]): 3.6 nM

- logD [1]: -3.4 ± 0.2
- Kd (folate receptor (FR) [2]): 4.7 nM
SMILES: CN1c2c(nc(N)[nH]c2=O)NC[C@H]1CNc1ccc(C(=O)N[C@@H](CCC(=O)N[C@@H](CCCCNC(=O)CN2CCN(CC(=O)O)CCN(CC(=O)O)CCN(CC(=O)O)CC2)C(=O)N[C@@H](CCCCNC(=O)CCCCc2ccc(I)cc2)C(=O)O)C(=O)O)cc1 [[^177Lu]Lu-6R-RedFol-24, metal not drawn]

SMILES: O=C(O)CN1CCN(CC(=O)O)CCN(CC(=O)NCCC(=O)N[C@@H](CCCCNC(=O)CCCc2ccc(I)cc2)C(=O)O)CCN(CC(=O)O)CC1.[177Lu] [[^177Lu]Lu-DOTA-ALB-1]
- logD value [3]: −3.15 ± 0.04

SMILES: CN1c2c(nc(N)[nH]c2=O)NCC1CNc1ccc(C(=O)NC(CCC(=O)NC(CCCCNC(=O)CN2CCN(CC(=O)[O-])CCN(CC(=O)[O-])CCN(CC(=O)[O-])CC2)C(=O)NC(CCCCNC(=O)c2ccc(CNC(=O)CCCc3ccc(I)cc3)cc2)C(=O)O)C(=O)O)cc1.[177Lu+3] (stereo not drawn) [[^177Lu]Lu-6S-RedFol-3]
- logD Values [1]: −3.2 ± 0.1
- Kd (folate receptor (FR) [2]): 2.8 nM

SMILES: CN1c2c(nc(N)[nH]c2=O)NCC1CNc1ccc(C(=O)NC(CCC(=O)NC(CCCCNC(=O)CN2CCN(CC(=O)[O-])CCN(CC(=O)[O-])CCN(CC(=O)[O-])CC2)C(=O)NC(CCCCNC(=O)CCCc2ccc(I)cc2)C(=O)O)C(=O)O)cc1.[177Lu+3] (stereo not drawn) [[^177Lu]Lu-6S-RedFol-1]
- logD Values [4]: −3.7 ± 0.1 ^4
- Kd (folate receptor (FR) [5]): 1.7 nM
- Blood, accumulated activity ([6]; 1 h p.i.): 19 ± 2 % IA/g
- Bone, accumulated activity ([6]; 1 h p.i.): 2.0 ± 0.2 % IA/g
- Intestines, accumulated activity ([6]; 1 h p.i.): 1.8 ± 0.4 % IA/g
- KB tumor, accumulated activity ([6]; 1 h p.i.): 14 ± 3 % IA/g
- Kidneys, accumulated activity ([6]; 1 h p.i.): 18 ± 2 % IA/g
- Liver, accumulated activity ([6]; 1 h p.i.): 2.6 ± 0.1 % IA/g
- Lung, accumulated activity ([6]; 1 h p.i.): 8.5 ± 0.6 % IA/g
- Muscle, accumulated activity ([6]; 1 h p.i.): 1.6 ± 0.2 % IA/g
- Salivary glands, accumulated activity ([6]; 1 h p.i.): 4.0 ± 0.2 % IA/g
- Spleen, accumulated activity ([6]; 1 h p.i.): 2.0 ± 0.2 % IA/g
- Stomach, accumulated activity ([6]; 1 h p.i.): 1.5 ± 0.3 % IA/g
- Tumor-to-blood ratio ([6]; 1 h p.i.): 0.73 ± 0.12
- Tumor-to-kidney ratio ([6]; 1 h p.i.): 0.75 ± 0.09
- Tumor-to-liver ratio ([6]; 1 h p.i.): 5.3 ± 1.0
- Blood, accumulated activity ([6]; 4 h p.i.): 15 ± 2 % IA/g
- Bone, accumulated activity ([6]; 4 h p.i.): 1.7 ± 0.2 % IA/g
- Intestines, accumulated activity ([6]; 4 h p.i.): 1.9 ± 0.1 % IA/g
- KB tumor, accumulated activity ([6]; 4 h p.i.): 26 ± 1 % IA/g
- Kidneys, accumulated activity ([6]; 4 h p.i.): 33 ± 2 % IA/g
- Liver, accumulated activity ([6]; 4 h p.i.): 2.3 ± 0.2 % IA/g
- Lung, accumulated activity ([6]; 4 h p.i.): 6.7 ± 0.6 % IA/g
- Muscle, accumulated activity ([6]; 4 h p.i.): 1.3 ± 0.1 % IA/g
- Salivary glands, accumulated activity ([6]; 4 h p.i.): 3.5 ± 0.4 % IA/g
- Spleen, accumulated activity ([6]; 4 h p.i.): 1.9 ± 0.3 % IA/g
- Stomach, accumulated activity ([6]; 4 h p.i.): 1.2 ± 0.2 % IA/g
- Tumor-to-blood ratio ([6]; 4 h p.i.): 1.7 ± 0.2
- Tumor-to-kidney ratio ([6]; 4 h p.i.): 0.79 ± 0.07
- Blood, accumulated activity ([6]; 24 h p.i.): 3.8 ± 0.9 % IA/g
- Bone, accumulated activity ([6]; 24 h p.i.): 0.53 ± 0.08 % IA/g
- Intestines, accumulated activity ([6]; 24 h p.i.): 0.49 ± 0.04 % IA/g
- KB tumor, accumulated activity ([6]; 24 h p.i.): 46 ± 3 % IA/g
- Kidneys, accumulated activity ([6]; 24 h p.i.): 69 ± 7 % IA/g
- Liver, accumulated activity ([6]; 24 h p.i.): 0.81 ± 0.22 % IA/g
- Lung, accumulated activity ([6]; 24 h p.i.): 2.2 ± 0.4 % IA/g
- Muscle, accumulated activity ([6]; 24 h p.i.): 0.47 ± 0.15 % IA/g
- Salivary glands, accumulated activity ([6]; 24 h p.i.): 1.4 ± 0.2 % IA/g
- Spleen, accumulated activity ([6]; 24 h p.i.): 1.1 ± 0.2 % IA/g
- Stomach, accumulated activity ([6]; 24 h p.i.): 0.51 ± 0.14 % IA/g
- Tumor-to-blood ratio ([6]; 24 h p.i.): 13 ± 3
- Tumor-to-kidney ratio ([6]; 24 h p.i.): 0.67 ± 0.08
- Tumor-to-liver ratio ([6]; 24 h p.i.): 59 ± 13

SMILES: CN1c2c(nc(N)[nH]c2=O)NCC1CNc1ccc(C(=O)NC(CCC(=O)NC(CCCCNC(=O)CN2CCN(CC(=O)[O-])CCN(CC(=O)[O-])CCN(CC(=O)[O-])CC2)C(=O)NC(CCCCNC(=O)c2ccc(CNC(=O)CCCCc3ccc(I)cc3)cc2)C(=O)O)C(=O)O)cc1.[177Lu+3] (stereo not drawn) [[^177Lu]Lu-6S-RedFol-25]
- logD Values [1]: −3.0 ± 0.1
- Kd (folate receptor (FR) [2]): 2.2 nM

SMILES: CN1c2c(nc(N)[nH]c2=O)NC[C@H]1CNc1ccc(C(=O)N[C@@H](CCC(=O)N[C@@H](CCCCNC(=O)CN2CCN(CC(=O)O)CCN(CC(=O)O)CCN(CC(=O)O)CC2)C(=O)N[C@@H](CCCCNC(=O)CCCc2ccc(I)cc2)C(=O)O)C(=O)O)cc1 [[^177Lu]Lu-6R-RedFol-1, metal not drawn]
- logD Values [4]: −3.9 ± 0.2 ^4
- Kd (folate receptor (FR) [5]): 2.6 nM
- Blood, accumulated activity ([6]; 1 h p.i.): 23 ± 3 % IA/g
- Bone, accumulated activity ([6]; 1 h p.i.): 2.1 ± 0.3 % IA/g
- Intestines, accumulated activity ([6]; 1 h p.i.): 2.9 ± 0.3 % IA/g
- Kidneys, accumulated activity ([6]; 1 h p.i.): 8.4 ± 0.8 % IA/g
- Liver, accumulated activity ([6]; 1 h p.i.): 3.3 ± 0.3 % IA/g
- Lung, accumulated activity ([6]; 1 h p.i.): 10 ± 1 % IA/g
- Muscle, accumulated activity ([6]; 1 h p.i.): 1.6 ± 0.2 % IA/g
- Salivary glands, accumulated activity ([6]; 1 h p.i.): 5.0 ± 0.3 % IA/g
- Spleen, accumulated activity ([6]; 1 h p.i.): 2.6 ± 0.2 % IA/g
- Stomach, accumulated activity ([6]; 1 h p.i.): 1.9 ± 0.4 % IA/g
- Tumor-to-blood ratio ([6]; 1 h p.i.): 0.46 ± 0.01
- Tumor-to-kidney ratio ([6]; 1 h p.i.): 1.3 ± 0.1
- Tumor-to-liver ratio ([6]; 1 h p.i.): 3.3 ± 0.2
- Blood, accumulated activity ([6]; 4 h p.i.): 17 ± 1 % IA/g
- Bone, accumulated activity ([6]; 4 h p.i.): 1.9 ± 0.2 % IA/g
- Intestines, accumulated activity ([6]; 4 h p.i.): 2.6 ± 0.7 % IA/g
- KB tumor, accumulated activity ([6]; 4 h p.i.): 20 ± 2 % IA/g
- Kidneys, accumulated activity ([6]; 4 h p.i.): 12 ± 1 % IA/g
- Liver, accumulated activity ([6]; 4 h p.i.): 3.0 ± 0.2 % IA/g
- Lung, accumulated activity ([6]; 4 h p.i.): 7.9 ± 1.4 % IA/g
- Muscle, accumulated activity ([6]; 4 h p.i.): 1.4 ± 0.1 % IA/g
- Salivary glands, accumulated activity ([6]; 4 h p.i.): 5.7 ± 0.5 % IA/g
- Spleen, accumulated activity ([6]; 4 h p.i.): 2.2 ± 0.2 % IA/g
- Stomach, accumulated activity ([6]; 4 h p.i.): 1.9 ± 0.3 % IA/g
- Tumor-to-blood ratio ([6]; 4 h p.i.): 1.2 ± 0.1
- Tumor-to-kidney ratio ([6]; 4 h p.i.): 1.7 ± 0.1
- Tumor-to-liver ratio ([6]; 4 h p.i.): 6.9 ± 0.7
- Blood, accumulated activity ([6]; 24 h p.i.): 5.4 ± 0.9 % IA/g
- Bone, accumulated activity ([6]; 24 h p.i.): 0.91 ± 0.22 % IA/g
- Intestines, accumulated activity ([6]; 24 h p.i.): 0.80 ± 0.09 % IA/g
- KB tumor, accumulated activity ([6]; 24 h p.i.): 47 ± 4 % IA/g
- Kidneys, accumulated activity ([6]; 24 h p.i.): 24 ± 4 % IA/g
- Liver, accumulated activity ([6]; 24 h p.i.): 1.3 ± 0.2 % IA/g
- Lung, accumulated activity ([6]; 24 h p.i.): 3.2 ± 0.6 % IA/g
- Muscle, accumulated activity ([6]; 24 h p.i.): 0.82 ± 0.22 % IA/g
- Salivary glands, accumulated activity ([6]; 24 h p.i.): 5.2 ± 1.0 % IA/g
- Spleen, accumulated activity ([6]; 24 h p.i.): 1.7 ± 0.1 % IA/g
- Stomach, accumulated activity ([6]; 24 h p.i.): 0.80 ± 0.11 % IA/g
- Tumor-to-blood ratio ([6]; 24 h p.i.): 8.8 ± 0.8
- Tumor-to-kidney ratio ([6]; 24 h p.i.): 2.0 ± 0.4
- Tumor-to-liver ratio ([6]; 24 h p.i.): 35 ± 4
